Assay results as given in ChEMBL document CHEMBL4052645, “Discovery of potent and efficacious pyrrolopyridazines as dual JAK1/3 inhibitors” (Bioorg Med Chem Lett, 2017).

Columns and labels:
[1] = biological target: Receptor tyrosine-protein kinase erbB-4 (Homo sapiens) (UniProt Q15303); test: Inhibition of wild-type human partial length ERBB4 (L690 to K994 residues) expressed in bacterial expression system assessed as residual activity at 50 nM by Kinomescan method relative to control
[2] = biological target: Activin receptor type-1-like (Homo sapiens) (UniProt P37023); test: Inhibition of wild-type human ALK1 (L164 to Q503 residues) expressed in bacterial expression system assessed as residual activity at 50 nM by Kinomescan method relative to control
[3] = biological target: Homeodomain-interacting protein kinase 4 (Homo sapiens) (UniProt Q8NE63); test: Inhibition of wild-type human partial length HIPK4 (M1 to V384 residues) expressed in bacterial expression system assessed as residual activity at 50 nM by Kinomescan method relative to control
[4] = biological target: Tyrosine-protein kinase ABL1 (Homo sapiens) (UniProt P00519); test: Inhibition of wild-type human phosphorylated ABL1 (S229 to K512 residues) expressed in mammalian expression system assessed as residual activity at 50 nM by Kinomescan method relative to control
Chain of Tyrosine-protein kinase ABL1 (Homo sapiens) (P00519 whole entry, the tested form may be a part): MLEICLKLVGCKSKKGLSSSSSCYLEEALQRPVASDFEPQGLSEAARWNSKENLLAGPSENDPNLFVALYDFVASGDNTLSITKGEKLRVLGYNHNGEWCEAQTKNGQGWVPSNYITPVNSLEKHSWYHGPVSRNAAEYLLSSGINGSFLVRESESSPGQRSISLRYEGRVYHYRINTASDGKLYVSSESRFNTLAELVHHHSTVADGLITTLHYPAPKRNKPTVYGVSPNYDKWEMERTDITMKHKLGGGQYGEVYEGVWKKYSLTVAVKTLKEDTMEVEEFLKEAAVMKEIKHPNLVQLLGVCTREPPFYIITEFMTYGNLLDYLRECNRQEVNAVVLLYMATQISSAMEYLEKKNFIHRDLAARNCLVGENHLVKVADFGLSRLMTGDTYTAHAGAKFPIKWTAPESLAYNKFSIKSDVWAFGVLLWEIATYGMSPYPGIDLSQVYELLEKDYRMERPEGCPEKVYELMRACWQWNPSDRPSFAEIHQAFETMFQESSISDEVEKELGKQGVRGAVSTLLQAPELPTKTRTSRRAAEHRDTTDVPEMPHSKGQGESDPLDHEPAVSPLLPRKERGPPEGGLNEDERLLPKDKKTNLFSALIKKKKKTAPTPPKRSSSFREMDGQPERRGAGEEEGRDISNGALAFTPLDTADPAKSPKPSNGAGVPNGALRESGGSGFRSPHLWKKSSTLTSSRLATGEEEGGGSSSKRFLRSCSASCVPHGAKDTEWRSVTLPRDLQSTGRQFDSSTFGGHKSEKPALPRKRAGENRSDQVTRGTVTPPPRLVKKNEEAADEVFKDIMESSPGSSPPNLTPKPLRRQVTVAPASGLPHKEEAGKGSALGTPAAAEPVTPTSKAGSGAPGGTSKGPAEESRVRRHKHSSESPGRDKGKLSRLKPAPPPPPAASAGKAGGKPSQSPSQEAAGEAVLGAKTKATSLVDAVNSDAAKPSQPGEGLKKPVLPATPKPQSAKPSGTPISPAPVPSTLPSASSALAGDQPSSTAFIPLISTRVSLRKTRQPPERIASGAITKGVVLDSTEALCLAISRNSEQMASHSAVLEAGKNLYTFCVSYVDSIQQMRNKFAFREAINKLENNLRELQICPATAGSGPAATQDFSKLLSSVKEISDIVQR

[5] = biological target: SRSF protein kinase 1 (Homo sapiens) (UniProt Q96SB4); test: Inhibition of wild-type human full length SRPK1 (M1 to S655 residues) expressed in bacterial expression system assessed as residual activity at 50 nM by Kinomescan method relative to control
[6] = biological target: Serine/threonine-protein kinase PAK 2 (Homo sapiens) (UniProt Q13177); test: Inhibition of wild-type human partial length PAK2 (P151 to R525 residues) expressed in bacterial expression system assessed as residual activity at 50 nM by Kinomescan method relative to control
Chain of Serine/threonine-protein kinase PAK 2 (Homo sapiens) (Q13177 whole entry, the tested form may be a part): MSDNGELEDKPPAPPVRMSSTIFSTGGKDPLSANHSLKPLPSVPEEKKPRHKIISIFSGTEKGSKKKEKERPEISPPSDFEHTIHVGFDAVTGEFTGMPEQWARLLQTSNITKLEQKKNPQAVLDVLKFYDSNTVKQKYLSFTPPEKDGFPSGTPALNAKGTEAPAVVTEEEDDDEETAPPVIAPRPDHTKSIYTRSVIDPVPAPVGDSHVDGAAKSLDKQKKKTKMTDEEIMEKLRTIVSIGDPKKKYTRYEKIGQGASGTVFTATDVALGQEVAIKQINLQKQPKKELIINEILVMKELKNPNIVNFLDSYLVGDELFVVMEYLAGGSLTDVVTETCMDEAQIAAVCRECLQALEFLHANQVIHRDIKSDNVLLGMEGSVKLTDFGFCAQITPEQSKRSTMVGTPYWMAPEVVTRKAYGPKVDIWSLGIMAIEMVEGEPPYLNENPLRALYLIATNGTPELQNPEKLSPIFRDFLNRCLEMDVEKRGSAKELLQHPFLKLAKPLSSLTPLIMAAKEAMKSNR

[7] = biological target: Calcium/calmodulin-dependent protein kinase kinase 1 (Homo sapiens) (UniProt Q8N5S9); test: Inhibition of wild-type human partial length CAMKK1 (R65 to E414 residues) expressed in bacterial expression system assessed as residual activity at 50 nM by Kinomescan method relative to control
[8] = biological target: Non-receptor tyrosine-protein kinase TYK2 (Homo sapiens, UniProt P29597); test: Inhibition of wild-type human partial length TYK2 JH2 pseudokinase domain (G556 to D888 residues) expressed in mammalian expression system assessed as residual activity at 50 nM by Kinomescan method relative to control
[9] = biological target: Dual specificity mitogen-activated protein kinase kinase 1 (Homo sapiens) (UniProt Q02750); test: Inhibition of wild-type human full length MAP2K1 (M1 to V393 residues) expressed in mammalian expression system assessed as residual activity at 50 nM by Kinomescan method relative to control
[10] = system: Phosphatidylinositol 4,5-bisphosphate 3-kinase catalytic subunit alpha isoform (Homo sapiens), P42336 [E542K]; test: Inhibition of human partial length PI3KCA E542K mutant (R108 to N1068 residues) expressed in mammalian expression system assessed as residual activity at 50 nM by Kinomescan method relative to control
Chain of Phosphatidylinositol 4,5-bisphosphate 3-kinase catalytic subunit alpha isoform (Homo sapiens), P42336 [E542K] (P42336 whole entry E542K, the tested form may be a part, canonical isoform): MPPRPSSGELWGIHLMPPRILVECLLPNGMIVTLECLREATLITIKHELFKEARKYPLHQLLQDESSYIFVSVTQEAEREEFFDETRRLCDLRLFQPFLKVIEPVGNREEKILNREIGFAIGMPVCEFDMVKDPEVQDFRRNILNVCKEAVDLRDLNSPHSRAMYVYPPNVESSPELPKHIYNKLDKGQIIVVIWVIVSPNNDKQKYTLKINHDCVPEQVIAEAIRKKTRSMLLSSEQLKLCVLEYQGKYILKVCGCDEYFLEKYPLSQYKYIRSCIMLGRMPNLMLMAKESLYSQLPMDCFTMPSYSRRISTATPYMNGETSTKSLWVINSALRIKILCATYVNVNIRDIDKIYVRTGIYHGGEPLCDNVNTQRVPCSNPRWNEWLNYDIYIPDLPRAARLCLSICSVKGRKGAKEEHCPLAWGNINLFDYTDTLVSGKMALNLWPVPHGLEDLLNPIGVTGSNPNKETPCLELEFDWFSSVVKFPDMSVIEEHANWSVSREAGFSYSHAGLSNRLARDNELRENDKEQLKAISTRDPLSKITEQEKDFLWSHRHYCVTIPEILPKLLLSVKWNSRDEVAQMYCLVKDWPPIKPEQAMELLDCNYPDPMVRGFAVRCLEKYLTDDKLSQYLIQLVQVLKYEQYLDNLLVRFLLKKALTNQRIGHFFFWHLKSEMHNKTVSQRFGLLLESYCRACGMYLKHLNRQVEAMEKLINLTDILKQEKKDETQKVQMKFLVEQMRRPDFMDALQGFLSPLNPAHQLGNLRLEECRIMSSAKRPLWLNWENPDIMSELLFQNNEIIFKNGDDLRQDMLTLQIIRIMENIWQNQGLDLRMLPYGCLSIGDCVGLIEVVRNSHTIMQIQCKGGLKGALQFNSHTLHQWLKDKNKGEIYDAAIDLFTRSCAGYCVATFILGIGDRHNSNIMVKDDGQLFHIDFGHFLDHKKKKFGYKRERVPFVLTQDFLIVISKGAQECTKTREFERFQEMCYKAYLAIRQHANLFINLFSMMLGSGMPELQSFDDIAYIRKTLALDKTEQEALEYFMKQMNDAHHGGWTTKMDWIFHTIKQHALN

[11] = biological target: Serine/threonine-protein kinase 32A (Homo sapiens) (UniProt Q8WU08); test: Inhibition of wild-type human full length STK32A (M1 to L396 residues) expressed in mammalian expression system assessed as residual activity at 50 nM by Kinomescan method relative to control
Chain of Serine/threonine-protein kinase 32A (Homo sapiens) (Q8WU08 whole entry, the tested form may be a part): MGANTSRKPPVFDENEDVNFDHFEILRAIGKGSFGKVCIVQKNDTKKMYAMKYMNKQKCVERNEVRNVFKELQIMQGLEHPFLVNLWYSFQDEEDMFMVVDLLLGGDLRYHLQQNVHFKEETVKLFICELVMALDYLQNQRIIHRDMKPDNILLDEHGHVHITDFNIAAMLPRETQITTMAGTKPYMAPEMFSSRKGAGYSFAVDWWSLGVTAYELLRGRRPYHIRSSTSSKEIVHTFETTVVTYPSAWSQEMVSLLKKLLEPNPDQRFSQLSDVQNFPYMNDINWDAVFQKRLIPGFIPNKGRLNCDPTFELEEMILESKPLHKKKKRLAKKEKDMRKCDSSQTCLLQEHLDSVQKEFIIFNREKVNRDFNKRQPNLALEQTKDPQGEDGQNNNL

[12] = biological target: Tyrosine-protein kinase Fes/Fps (Homo sapiens) (UniProt P07332); test: Inhibition of wild-type human partial length FES (I527 to R822 residues) expressed in bacterial expression system assessed as residual activity at 50 nM by Kinomescan method relative to control
[13] = biological target: MAP/microtubule affinity-regulating kinase 4 (Homo sapiens) (UniProt Q96L34); test: Inhibition of wild-type human partial length MARK4 (K29 to G340 residues) expressed in bacterial expression system assessed as residual activity at 50 nM by Kinomescan method relative to control
[14] = biological target: Serine/threonine-protein kinase BRSK2 (Homo sapiens) (UniProt Q8IWQ3); test: Inhibition of wild-type human full length BRSK2 (M1 to L674 residues) expressed in bacterial expression system assessed as residual activity at 50 nM by Kinomescan method relative to control
[15] = biological target: Serine/threonine-protein kinase ICK (Homo sapiens) (UniProt Q9UPZ9); test: Inhibition of wild-type human partial length ICK (M1 to P314 residues) expressed in mammalian expression system assessed as residual activity at 50 nM by Kinomescan method relative to control
[16] = biological target: Mast/stem cell growth factor receptor Kit (Homo sapiens) (UniProt P10721); test: Inhibition of wild-type human partial length KIT (I571 to D952 residues) expressed in bacterial expression system assessed as residual activity at 50 nM by Kinomescan method relative to control
Chain of Mast/stem cell growth factor receptor Kit (Homo sapiens) (P10721 whole entry, the tested form may be a part): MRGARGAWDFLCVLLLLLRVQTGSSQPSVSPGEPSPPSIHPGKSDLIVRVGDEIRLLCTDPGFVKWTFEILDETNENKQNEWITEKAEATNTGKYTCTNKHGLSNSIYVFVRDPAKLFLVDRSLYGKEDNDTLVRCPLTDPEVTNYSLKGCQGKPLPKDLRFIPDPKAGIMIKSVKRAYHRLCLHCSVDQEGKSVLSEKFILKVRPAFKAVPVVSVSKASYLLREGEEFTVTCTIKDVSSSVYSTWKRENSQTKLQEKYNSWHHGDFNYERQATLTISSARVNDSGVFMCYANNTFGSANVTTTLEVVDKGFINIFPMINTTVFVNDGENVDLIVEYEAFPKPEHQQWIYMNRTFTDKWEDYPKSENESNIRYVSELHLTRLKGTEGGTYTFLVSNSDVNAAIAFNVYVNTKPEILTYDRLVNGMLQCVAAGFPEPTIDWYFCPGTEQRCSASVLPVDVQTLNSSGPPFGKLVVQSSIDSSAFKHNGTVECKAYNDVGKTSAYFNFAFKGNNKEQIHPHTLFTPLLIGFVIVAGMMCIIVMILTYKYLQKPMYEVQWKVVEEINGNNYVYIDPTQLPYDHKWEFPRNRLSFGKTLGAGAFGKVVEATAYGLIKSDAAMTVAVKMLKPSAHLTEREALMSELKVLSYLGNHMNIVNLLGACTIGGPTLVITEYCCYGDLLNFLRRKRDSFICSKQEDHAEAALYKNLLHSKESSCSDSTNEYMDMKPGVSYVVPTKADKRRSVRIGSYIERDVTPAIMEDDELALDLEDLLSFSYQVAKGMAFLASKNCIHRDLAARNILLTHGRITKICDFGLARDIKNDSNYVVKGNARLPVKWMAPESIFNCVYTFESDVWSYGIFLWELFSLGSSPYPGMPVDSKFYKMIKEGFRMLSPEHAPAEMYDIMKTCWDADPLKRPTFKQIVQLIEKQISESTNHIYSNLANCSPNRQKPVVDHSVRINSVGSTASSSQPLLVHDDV

[17] = biological target: RAC-alpha serine/threonine-protein kinase (Homo sapiens) (UniProt P31749); test: Inhibition of wild-type human partial length AKT1 expressed in bacterial expression system assessed as residual activity at 50 nM by Kinomescan method relative to control
[18] = biological target: Discoidin domain-containing receptor 2 (Homo sapiens) (UniProt Q16832); test: Inhibition of wild-type human partial length DDR2 (V555 to E855 residues) expressed in mammalian expression system assessed as residual activity at 50 nM by Kinomescan method relative to control
[19] = biological target: Serine/threonine-protein kinase Nek5 (Homo sapiens) (UniProt Q6P3R8); test: Inhibition of wild-type human partial length NEK5 (M1 to M279 residues) expressed in bacterial expression system assessed as residual activity at 50 nM by Kinomescan method relative to control
[20] = biological target: Cyclin-dependent kinase 18 (Homo sapiens) (UniProt Q07002); test: Inhibition of wild-type human full length PCTAIRE3 (M3 to F474 residues) expressed in bacterial expression system assessed as residual activity at 50 nM by Kinomescan method relative to control
Chain of Cyclin-dependent kinase 18 (Homo sapiens) (Q07002 whole entry, the tested form may be a part): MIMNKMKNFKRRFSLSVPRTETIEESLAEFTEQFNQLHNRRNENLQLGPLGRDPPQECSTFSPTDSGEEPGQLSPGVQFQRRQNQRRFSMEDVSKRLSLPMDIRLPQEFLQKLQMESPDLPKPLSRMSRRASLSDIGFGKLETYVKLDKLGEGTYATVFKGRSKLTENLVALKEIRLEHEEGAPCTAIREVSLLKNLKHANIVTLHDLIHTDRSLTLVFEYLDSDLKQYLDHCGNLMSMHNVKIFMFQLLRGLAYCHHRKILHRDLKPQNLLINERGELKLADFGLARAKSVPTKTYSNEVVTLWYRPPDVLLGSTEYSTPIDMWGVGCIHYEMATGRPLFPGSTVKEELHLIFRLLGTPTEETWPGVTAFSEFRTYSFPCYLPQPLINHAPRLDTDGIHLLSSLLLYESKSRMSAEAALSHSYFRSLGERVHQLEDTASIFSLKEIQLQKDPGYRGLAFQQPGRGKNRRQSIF

[21] = biological target: Atypical kinase COQ8A, mitochondrial (Homo sapiens) (UniProt Q8NI60); test: Inhibition of wild-type human […] ADCK3 (M280 to Q647 residues) expressed in bacterial expression system assessed as residual activity at 50 nM by Kinomescan method relative to control
[22] = biological target: Aurora kinase A (Homo sapiens) (UniProt O14965); test: Inhibition of wild-type human partial length AURA (E122 to K401 residues) expressed in mammalian expression system assessed as residual activity at 50 nM by Kinomescan method relative to control
[23] = biological target: cAMP-dependent protein kinase catalytic subunit PRKX (Homo sapiens) (UniProt P51817); test: Inhibition of wild-type human partial length PRKX (M1 to F358 residues) expressed in bacterial expression system assessed as residual activity at 50 nM by Kinomescan method relative to control
Chain of cAMP-dependent protein kinase catalytic subunit PRKX (Homo sapiens) (P51817 whole entry, the tested form may be a part): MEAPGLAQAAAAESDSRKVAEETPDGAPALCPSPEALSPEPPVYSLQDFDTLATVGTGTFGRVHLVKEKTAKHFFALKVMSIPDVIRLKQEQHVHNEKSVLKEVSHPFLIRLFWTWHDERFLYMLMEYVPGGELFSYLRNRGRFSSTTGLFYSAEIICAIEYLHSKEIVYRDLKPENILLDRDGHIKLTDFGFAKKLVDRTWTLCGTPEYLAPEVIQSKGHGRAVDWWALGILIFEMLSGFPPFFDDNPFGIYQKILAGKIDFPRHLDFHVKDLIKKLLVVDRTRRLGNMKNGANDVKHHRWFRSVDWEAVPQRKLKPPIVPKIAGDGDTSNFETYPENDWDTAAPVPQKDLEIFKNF

[24] = system: Mus musculus; test: In vivo inhibition of JAK1/JAK3 in Balb/c mouse assessed as reduction in IL15-induced STAT5 phosphorylation at […], po after 4 hrs; assay type: functional, organism-based
[25] = biological target: Mitogen-activated protein kinase kinase kinase 13 (Homo sapiens) (UniProt O43283); test: Inhibition of wild-type human full length LZK (M1 to W966 residues) expressed in mammalian expression system assessed as residual activity at 50 nM by Kinomescan method relative to control

SMILES	Activity [1]	Activity [2]	Activity [3]	Activity [4]	Activity [5]	Activity [6]	Activity [7]	Activity [8]	Activity [9]	Activity [10]	Activity [11]	Activity [12]	Activity [13]	Activity [14]	Activity [15]	Activity [16]	Activity [17]	Activity [18]	Activity [19]	Activity [20]	further results
CC1(C)[C@H](Nc2c(C(N)=O)cnn3cc(-c4ccccc4)cc23)CC[C@]1(C)N	87%	100%	100%	100%	80%	76%	92%	100%	80%	100%	92%	100%	79%	100%	64%	55%	79%	100%	100%	58%	Activity [21]: 100%; Activity [22]: 88%; Activity [23]: 59%; EC50 [24]: 125 nM; Activity [25]: 93%
COc1ccc(-c2cc3c(N[C@@H]4CC[C@](C)(N)C4(C)C)c(C(N)=O)cnn3c2)cn1	100%	100%	80%	74%	62%	77%	100%	100%	94%	100%	100%	98%	93%	96%	100%	98%	95%	100%	100%	100%	Activity [21]: 76%; Activity [22]: 100%; Activity [23]: 100%; EC50 [24]: 67 nM; Activity [25]: 90%
